The assay addresses T1, human KCNQ2 and KCNQ3 (Homo sapiens, UniProt O43525+O43526).
T1 construct: expressed in transfected cells; host or cells: HEK293
Put plainly: KCNQ 2/3 channel activation, thallium flux FLIPR assay (BTC-AM dye) in HEK293 cells. The assay is classed as cell-based. The protocol:
The following example describes the assay that can be used to identify compounds that activate KCNQ 2/3 channels.
HEK293 cells stably expressing human KCNQ2 and KCNQ3 were seeded in 96-well, black-walled, clear-bottomed, poly-D-lysine coated plates (BD Biosciences, Bedford, Mass.) at a density of 1×10^5 cells per well 24 hours before the assay. On the assay day, BTC-AM dye (Invitrogen, Carlsbad, Calif.) was loaded into the cells by replacing the cell culture medium with 100 μL/well of 4 μM dye in DPBS. Dye loading was allowed to proceed for 2 hours at room temperature and then cells were washed twice in 100 μL/well of assay buffer (in mM: 10 HEPES pH 7.3, 5 glucose, 140 Na-gluconate, 2.5 K-gluconate, 3.6 Ca-gluconate, 2 MgSO4, 0.1 Ouabain) to remove unloaded dye. Cells were incubated in 50 μL of assay buffer before loading onto a FLIPR system (Molecular Devices, Sunnyvale, Calif.). Various concentrations of compounds to be assayed were added to the cells in 50 μL of assay buffer and incubated for 4 minutes. The fluorescence signal was initiated by adding 100 μL of assay buffer containing 6 mM TlNO3 and 10 mM K2SO4. Fluors were excited using the 488-nm line of an argon laser and emission was filtered using a 540±30 nm bandpass filter. Fluorescent signals were recorded for 3 minutes. Responses over baseline values were plotted versus concentrations of test compounds to obtain an EC50 value. The maximum response for each test compound was determined relative to the response produced at 10 μM by retigabine. The maximum response of retigabine at 10 μM was set at 100%.

Consider one compound from patent publication US8962639B2, “Potassium channel modulators” (AbbVie Inc., priority 2009, dated 2015).

T1 sequence (O43526 whole entry): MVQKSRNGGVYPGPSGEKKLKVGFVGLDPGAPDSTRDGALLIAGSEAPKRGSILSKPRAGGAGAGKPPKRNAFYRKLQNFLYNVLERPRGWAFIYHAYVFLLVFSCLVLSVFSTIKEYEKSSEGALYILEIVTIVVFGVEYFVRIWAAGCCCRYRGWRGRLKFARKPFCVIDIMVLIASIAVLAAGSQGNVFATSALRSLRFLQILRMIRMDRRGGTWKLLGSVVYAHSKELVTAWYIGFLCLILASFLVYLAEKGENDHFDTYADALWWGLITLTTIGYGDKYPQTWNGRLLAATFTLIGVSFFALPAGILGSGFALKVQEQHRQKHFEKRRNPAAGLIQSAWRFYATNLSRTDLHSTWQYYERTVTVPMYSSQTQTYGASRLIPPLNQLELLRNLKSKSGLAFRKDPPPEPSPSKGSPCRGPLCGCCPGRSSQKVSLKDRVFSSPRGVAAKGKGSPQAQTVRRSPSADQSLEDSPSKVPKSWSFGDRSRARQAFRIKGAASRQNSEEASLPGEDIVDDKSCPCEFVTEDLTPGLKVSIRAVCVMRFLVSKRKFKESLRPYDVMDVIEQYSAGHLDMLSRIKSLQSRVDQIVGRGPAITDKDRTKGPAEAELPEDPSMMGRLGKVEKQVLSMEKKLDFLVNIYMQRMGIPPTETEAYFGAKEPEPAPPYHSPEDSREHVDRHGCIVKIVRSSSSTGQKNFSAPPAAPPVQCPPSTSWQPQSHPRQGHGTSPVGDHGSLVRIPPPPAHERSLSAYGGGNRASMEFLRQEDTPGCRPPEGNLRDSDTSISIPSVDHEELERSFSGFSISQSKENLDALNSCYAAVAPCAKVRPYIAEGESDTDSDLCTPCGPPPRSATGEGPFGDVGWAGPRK
T1 sequence (O43525 whole entry): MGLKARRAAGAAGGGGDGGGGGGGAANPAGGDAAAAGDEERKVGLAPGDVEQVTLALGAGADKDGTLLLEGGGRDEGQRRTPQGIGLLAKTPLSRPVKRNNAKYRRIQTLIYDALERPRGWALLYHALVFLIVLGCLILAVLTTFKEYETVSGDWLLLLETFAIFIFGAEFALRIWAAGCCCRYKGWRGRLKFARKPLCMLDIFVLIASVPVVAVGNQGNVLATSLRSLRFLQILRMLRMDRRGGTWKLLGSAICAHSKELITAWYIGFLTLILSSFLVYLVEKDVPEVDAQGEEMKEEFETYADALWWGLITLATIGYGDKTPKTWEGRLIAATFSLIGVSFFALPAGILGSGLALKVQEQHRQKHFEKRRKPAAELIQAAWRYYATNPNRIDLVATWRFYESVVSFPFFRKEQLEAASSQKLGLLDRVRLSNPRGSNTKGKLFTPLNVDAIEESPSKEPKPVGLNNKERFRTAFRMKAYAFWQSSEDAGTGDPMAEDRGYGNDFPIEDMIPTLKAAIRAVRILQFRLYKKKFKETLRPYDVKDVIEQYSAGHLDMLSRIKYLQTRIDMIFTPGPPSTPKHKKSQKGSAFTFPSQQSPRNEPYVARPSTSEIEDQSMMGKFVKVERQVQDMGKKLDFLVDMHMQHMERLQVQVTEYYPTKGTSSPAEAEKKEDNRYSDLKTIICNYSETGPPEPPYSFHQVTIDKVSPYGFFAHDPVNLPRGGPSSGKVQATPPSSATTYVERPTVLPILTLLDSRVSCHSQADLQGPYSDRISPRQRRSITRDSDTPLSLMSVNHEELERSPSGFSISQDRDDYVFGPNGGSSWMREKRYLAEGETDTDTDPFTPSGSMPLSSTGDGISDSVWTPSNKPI

For `O=C(CC12CC3CC(CC(C3)C1)C2)Nn1cnc2ccsc2c1=O` [Example 26, 2-(1-adamantyl)-N-(4-oxothieno[3,2-d]pyrimidin-3(4H)-yl)acetamide], the Emax (HEK293, maximum response relative to response of retigabine at 10 μM set at 100%, read-out: Max response) was 140%. This compound also displayed a concentration giving a half-maximal response (EC50) (HEK293 cells stably expressing human KCNQ2 and KCNQ3, compound incubated 4 minutes, Tl+ flux fluorescence) of 2680 nM.
